In paper PMC9415646, “Improving Aqueous Solubility and In Vitro Pharmacokinetic Properties of the 3-Nitroimidazo[1,2-a]pyridine Antileishmanial Pharmacophore” (Pharmaceuticals, 2022):
Converted amounts (≈) assume the structure as drawn.

Columns and labels:
[1] = system: L. infantum promastigotes; experiment: Antileishmanial activity against L. infantum promastigotes (luciferase assay); type: cell-based; settings: Leishmania infantum, 72 h, read-out: EC50 L. infantum Pro.
Method: L. infantum promastigotes (MHOM/MA/67/ITMAP-263, CNR Leishmania, Montpellier, France, expressing luciferase activity) were used in the following tests. The effects of the tested compounds on the growth of L. infantum promastigotes were assessed by Luciferase Assay. Briefly, promastigotes in log-phase in RPMI 1640 medium supplemented with 10% fetal calf serum (FCS), 2 mM L-glutamine and antibiotics (100U/mL penicillin, 100 µg/mL streptomycin and 50µg/mL geneticin), were incubated at an average density of 10^6 parasites/mL (100 µL/well) in sterile 96-well plates with various concentrations of compounds dissolved in DMSO (final concentration less than 0.5% v/v), in duplicate. Appropriate controls (100 µL/well) treated by DMSO and reference drugs (purchased for the majority from Sigma Aldrich) were added to each set of experiments. After a 72 h incubation period at 24 °C, each plate-well was then microscope-examined for detecting possible precipitate formation. To estimate the luciferase activities of promastigotes, 80 µL of each well are transferred in white 96-well plates, Steady Glow reagent (Promega) was added according to manufacter’s instructions, and plates were incubated for 2 min. The luminescence was measured in a FLUOstar Omega (BMG Labtech, Champigny-sur-Marne, France). […] EC50 were calculated by non-linear regression analysis processed on dose–response curves, using TableCurve 2D V5 software.

[2] = Cytotoxicity on THP-1 cell line (MTT); type: cell-based; settings: human, THP-1 cells, THP1 cell line
Method: The plates were incubated for 72 h at 37 °C. Each well plate was then microscope-examined for detecting possible precipitate formation before the medium was aspirated from the wells. 100 µL of MTT solution (0.5 mg/mL in medium) were then added to each well. Cells were incubated for 2 h at 37 °C. […] Plates were shaken vigorously (300 rpm) for 10 min. The absorbance was measured at 570 nm using a BIO-TEK ELx808 Absorbance Microplate Reader. DMSO was used as blank and doxorubicin (purchased from Sigma Aldrich) as positive control. Cell viability was calculated as percentage of control (cells incubated with DMSO). […] (Palo Alto, CA, USA). CC50 values represent the mean value calculated from three separate experiments.

[3] = Thermodynamic solubility at pH 7.4 (miniaturized shake-flask); type: physicochemical; settings: pH 7.4, PBS, 23 °C; for solubility thermodynamic at 24 h: phosphate buffer (PBS), aqueous buffer, kinetic from dmso stock
Method: Thermodynamic solubility at pH 7.4 of compounds was determined according to a miniaturized shake-flask method (Organisation for Economic Cooperation and Development guideline n°105). Phosphate Buffer solutions (pH 7.4, […], ionic strength […]) were prepared from Na2HPO4, KH2PO4 and KCl (Sigma Aldrich, Saint Quentin Fallavier, France); 10 µL of 20 mM stock solution were added to 5 mL glass tubes containing […] buffer (n = 3). The tubes were briefly sonicated and shacked by inversion during 24 h at 23 °C. Then, the tube contents were placed in a microtube which was centrifuged at 12,225× g for 10 min; 100 µL supernatant were mixed with 100 µL acetonitrile in a Greiner UV microplate. Standard solutions were prepared extemporaneously, diluting 20 mM DMSO stock solutions at […]; 5 µL of each working solution were diluted with 995 µL buffer and 100 µL were then mixed in microplates with 100 µL acetonitrile so as to ensure that the final proportions of each solvent in standard solutions and samples remained unchanged. Solubility at pH 7.4 was determined with an Infinite M200Pro (Tecan, Lyon, France) microplate reader in spectrophotometric mode (230 to 450 nm) from the specific λmax of each compound. The calibration curve was obtained from the […] standard solutions of tested compounds at 0, 25, 50, and 100 µM in a 50:50 (vol/vol) mixture of buffer with acetonitrinile/DMSO (99:1; vol/vol). Calibration curves were linear with R^2 > 0.99.

[4] = Mouse microsomal stability; type: in vitro ADME; settings: female, CD-1, pH 7.4; mouse liver microsomes; read-out: Mouse Microsomal Stability T1/2
Method: The tested product and propranolol, used as reference, were incubated in duplicate (reaction volume of 0.5 mL) with female mouse microsomes (CD-1, 20 mg/mL, BD Gentest™) at 37 °C in a 50 mM phosphate buffer, pH 7.4, in the presence of MgCl2 (5 mM), NADP (1 mM), glucose-6-phosphate dehydrogenase (0.4 U/mL) and glucose-6-phosphate (5 mM). […] After centrifugation at 10,000× g, 10 min, 4 °C, the supernatants were maintained at 4 °C for immediate analysis or placed at -80 °C for later analysis. Controls (t0 and tfinal) in triplicate were prepared by incubation of the internal standard with microsomes denatured by acetonitrile. […] The mobile phases were (A) ammonium acetate 10 mM and (B) acetonitrile with 0.1% formic acid. The injection volume was 1 µL and the flow rate 600 µL/min. […] Each compound was quantified by converting the average of the ratios of the analyte/internal standard surfaces to the percentage of product consumed. The ratio of the control at t0 corresponded to 0% of product consumed. The half-life (T1/2) of each compound in the presence of microsomes was calculated according to the equation: t1/2=ln(2)/k , where k is the first-order degradation constant (the slope of the logarithm of compound concentration versus incubation time). The intrinsic clearance in vitro (Clint expressed in μL/min/mg) is calculated according to the equation: Clint=dose/AUC∞/[microsomes] where “dose” is the initial concentration of product in the sample, AUC∞ is the area under the concentration-time curve extrapolated to infinity and [microsomes] is the microsome concentration expressed in mg/µL.

Row | SMILES | EC50 [1] | CC50 at 72 h [2] | solubility thermodynamic at 24 h [3] | half-life [4] | melting point | Thermodynamic Solubility at pH 7.4 in PBS ([3]; 24 h)
1 | O=[N+]([O-])c1c(CS(=O)(=O)c2ccc(F)cc2)nc2c(Sc3ccc(Cl)cc3)cc(Cl)cn12 [Compound 3c, 6-Chloro-8-[(4-Chlorophenyl)thio]-2-[(4-Fluorophenylsulfonyl)methyl]-3-Nitroimidazo[1,2-a]pyridine] | 1.5 ± 0.1 µM | > 100 µM | < 2 µM | 5.7 min | 197 °C | –
2 | O=[N+]([O-])c1c(CS(=O)(=O)c2ccc(OC(F)(F)F)cc2)nc2c(Sc3ccc(Cl)cc3)cc(Cl)cn12 [Compound 3e, 6-Chloro-8-[(4-Chlorophenyl)thio]-3-Nitro-2-[(4-Trifluoromethoxyphenylsulfonyl)methyl]imidazo[1,2-a]pyridine] | 3.1 ± 0.2 µM | > 100 µM | 64.7 ± 7.3 µM (≈ 37.4 µg/mL) | – | 173 °C | –
3 | O=[N+]([O-])c1c(CS(=O)(=O)c2ccc(C(F)(F)F)cc2)nc2c(Sc3ccc(Cl)cc3)cc(Cl)cn12 [Compound 3d, 6-Chloro-8-[(4-Chlorophenyl)thio]-3-Nitro-2-[(4-Trifluoromethylphenylsulfonyl)methyl]imidazo[1,2-a]pyridine] | 3.3 ± 0.4 µM | > 50 µM | 2.5 ± 0.7 µM (≈ 1.41 µg/mL) | – | 222 °C | –
4 | O=[N+]([O-])c1c(CS(=O)(=O)CCC(F)(F)F)nc2c(S(=O)(=O)c3ccc(Cl)cc3)cc(Cl)cn12 [Compound 6b, 6-Chloro-8-[(4-Chlorophenyl)sulfonyl]-3-Nitro-2-[(3,3,3-Trifluoropropylsulfonyl)methyl] imidazo[1,2-a]pyridine] | 13.7 ± 0.9 µM | > 100 µM | – | 7.9 min | 233 °C | –
5 | O=[N+]([O-])c1c(CS(=O)(=O)CCC(F)(F)F)nc2c(Sc3ccc(Cl)cc3)cc(Cl)cn12 [Compound 3i, 6-Chloro-8-[(4-Chlorophenyl)thio]-3-Nitro-2-[(3,3,3-Trifluoropropylsulfonyl)methyl]imidazo[1,2-a]pyridine] | 1.4 ± 0.1 µM | > 50 µM | 12.4 ± 3 µM (≈ 6.38 µg/mL) | 9.1 min | 183 °C | –
6 | COc1ccc(S(=O)(=O)Cc2nc3c(Br)cc(Cl)cn3c2[N+](=O)[O-])cc1 [Compound 2g, 8-Bromo-6-Chloro-2-[(4-Methoxyphenylsulfonyl)methyl]-3-Nitroimidazo[1,2-a]pyridine] | 9.3 ± 1.2 µM | > 100 µM | 5.7 ± 1.3 µM (≈ 2.63 µg/mL) | – | 226 °C | –
7 | O=[N+]([O-])c1c(CS(=O)(=O)c2ccc(OC(F)(F)F)cc2)nc2c(Br)cc(Cl)cn12 [Compound 2f, 8-Bromo-6-Chloro-3-Nitro-2-[(4-Trifluoromethoxyphenylsulfonyl)methyl]imidazo[1,2-a] pyridine] | 6.7 ± 0.8 µM | > 100 µM | 8.6 ± 2.3 µM (≈ 4.43 µg/mL) | – | 178 °C | –
8 | O=[N+]([O-])c1c(CS(=O)(=O)c2ccc(Cl)cc2)nc2c(Sc3ccc(Cl)cc3)cc(Cl)cn12 [Compound 3b, 6-Chloro-2-[(4-Chlorophenylsulfonyl)methyl]-8-[(4-Chlorophenyl)thio]-3-Nitroimidazo[1,2-a]pyridine] | 1.2 ± 0.1 µM | > 15.6 µM | < 2 µM | 4.5 min | 221 °C | –
9 | O=[N+]([O-])c1c(CS(=O)(=O)c2ccccc2)nc2c(Sc3ccc(Cl)cc3)cc(Cl)cn12 [Hit B, reference compound] | 0.6 ± 0.1 µM | > 62.5 µM | – | 3 min | – | 1.4 ± 0.5 µM
10 | O=[N+]([O-])c1c(CS(=O)(=O)c2ccc(O)cc2)nc2c(Sc3ccc(Cl)cc3)cc(Cl)cn12 [Compound 3a, 4-{[(6-Chloro-8-[(4-Chlorophenyl)thio]-3-Nitroimidazo[1,2-a]pyridin-2-yl)methyl]sulfonyl}phenol] | 5.6 ± 0.9 µM | 28.2 ± 0.1 µM | – | – | 241 °C | –
11 | COc1ccc(S(=O)(=O)Cc2nc3c(Sc4ccc(Cl)cc4)cc(Cl)cn3c2[N+](=O)[O-])cc1 [Compound 3f, 6-Chloro-8-[(4-Chlorophenyl)thio]-2-[(4-Methoxyphenylsulfonyl)methyl]-3-Nitroimidazo[1,2-a]pyridine] | 1.2 ± 0.1 µM | > 50 µM | < 2 µM | – | 214 °C | –
12 | CSc1ccc(OCc2ncc([N+](=O)[O-])n2C)cc1 [Fexinidazole, reference compound] | 1 ± 0.1 µM | > 100 µM | – | – | – | –
13 | O=[N+]([O-])c1c(CS(=O)(=O)CCC(F)(F)F)nc2c(-c3ccncc3)cc(Cl)cn12 [Compound 7, 6-Chloro-3-Nitro-8-(Pyridin-4-yl)-2-[(3,3,3-Trifluoropropylsulfonyl)methyl]imidazo[1,2-a]pyridine] | 14 ± 0.4 µM | > 100 µM | 31.1 ± 3.7 µM (≈ 14 µg/mL) | > 40 min | 184 °C | –
14 | O=[N+]([O-])c1c(CS(=O)(=O)C2CC2)nc2c(Sc3ccc(Cl)cc3)cc(Cl)cn12 [Compound 3h, 6-Chloro-8-[(4-Chlorophenyl)thio]-2-[(cyclopropylsulfonyl)methyl]-3-Nitroimidazo[1,2-a]pyridine] | 2.2 ± 0.3 µM | > 62.5 µM | 3 ± 0.4 µM (≈ 1.38 µg/mL) | – | 196 °C | –
15 | O=[N+]([O-])c1c(CS(=O)(=O)c2ccccc2)nc2c(Br)cc(Cl)cn12 [Hit A, 8-Bromo-6-chloro-3-nitro-2-(phenylsulfonylmethyl)imidazo[1,2-a]pyridine, reference compound] | 8.7 ± 0.7 µM | > 100 µM | 6.9 ± 1.5 µM (≈ 2.97 µg/mL) | 11 min | – | –
